Series [1] relates to M. tuberculosis H37Rv CNCTC My 331/88. The series can be described thus: Antimycobacterial in vitro screening, microdilution broth panel method, Alamar Blue. The class given is cell-based, Mycobacterium tuberculosis. The settings on record: 37 °C; for MIC: Mycobacterium tuberculosis, H37RV, 336 h, pH 6, Sula's medium pH 6.0, 14 days; for MIC M.tuberculosis H37Rv: Sula's medium pH 6.0, 14 days. (Broth dilution looks for growth in wells or tubes with falling amounts of substance.)

The test system of series [2] is photosynthetic electron transport (PET) in spinach chloroplasts. The series can be described thus: Inhibition of photosynthetic electron transport (PET) in spinach chloroplasts, DCPIP photoreduction. It is filed as biochemical, Spinacia oleracea L. The conditions noted are these: for IC50 / IC50 PET inhibition in spinach chloroplasts: chlorophyll 30 mg/L, phosphate buffer pH 7.2. The procedure:
Chloroplasts were prepared from spinach (Spinacia oleracea L.) according to Masarovicova and Kralova. The inhibition of photosynthetic electron transport (PET) in spinach chloroplasts was determined spectrophotometrically (Genesys 6, Thermo Scientific, Madison, WI, USA) using an artificial electron acceptor 2,6-dichlorophenol-indophenol (DCPIP) according to Kralova et al. and the rate of photosynthetic electron transport (PET) was monitored as a photo-reduction of DCPIP. The measurements were carried out in a phosphate buffer (0.02 mol/L, pH 7.2) containing sucrose (0.4 mol/L), MgCl2 (0.005 mol/L) and NaCl (0.015 mol/L). The chlorophyll content was 30 mg/L in these experiments and the samples were irradiated (~100 W/m^2) from a 10 cm distance with halogen lamp (250 W) using a 4 cm water filter to prevent warming of the samples (suspension temperature […]). The studied compounds were dissolved in DMSO due to their limited water solubility. […] The inhibitory efficiency of the studied compounds was expressed as the IC50 values, i.e., molar concentration of the compounds causing 50% decrease in the oxygen evolution relative to the untreated control.

A short description of series [3]: Lipophilicity log k by RP-HPLC. The settings on record: for log k: RP-HPLC capacity factor, C18, MeOH 70%/H2O 30%, 30 °C; for π: π = log k(substituted) – log k(unsubstituted).
From the text: Experimental lipophilicity parameter log k was ascertained using an Agilent Technologies 1200 SL HPLC system with a SL G1315C Diode-Array Detector, ZORBAX XDB-C18 5 μm, 4 × 4 mm, Part No. 7995118-504 chromatographic pre-column and ZORBAX Eclipse XDB-C18 5 μm, 4.6 × 250 mm, Part No. 7995118-585 column (Agilent Technologies Inc., Colorado Springs, CO, USA). The separation process was controlled by Agilent ChemStation, version B.04.02 extended by spectral module (Agilent Technologies Inc.). A solution of MeOH (HPLC grade, 70%) and H2O (HPLC-Milli-Q Grade, 30%) was used as mobile phase. The total flow of the column was 1.0 mL/min, injection 20 μL, column temperature 30 °C. Detection wavelength λ= 210 nm and monitor wavelength λ= 270 nm were chosen for this measurement. The KI methanol solution was used for the dead time (TD) determination. Retention times (TR) of synthesized compounds were measured in minutes. The capacity factors k were calculated using Microsoft Excel according to formula k = (TR − TD)/TD, where TR is the retention time of the solute and TD denotes the dead time obtained via an unretained analyte. Log k, calculated from the capacity factor k, is used as the lipophilicity index converted to log P scale.
Series [4] concerns M. kansasii CNCTC My 235/80. The series can be described thus: Antimycobacterial in vitro screening, non-tuberculosis strain M. kansasii. It is filed as cell-based, Mycobacterium kansasii. The settings on record: result in words.
Another series deals with M. avium CNCTC My 152/73. The series can be described thus: Antimycobacterial in vitro screening, non-tuberculosis strain M. avium. It is filed as cell-based, Mycobacterium avium. The conditions noted are these: result in words.
For series [5], the system named is Trichophyton mentagrophytes 445. The series can be described thus: Antifungal in vitro screening, microdilution broth method. The conditions noted are these: for MIC: Trichophyton mentagrophytes, 445, RPMI 1640, pH 7.0, 35 °C, read-out: MIC against Trichophyton mentagrophytes; for activity against Trichophyton mentagrophytes: result in words. The class given is cell-based. The procedure:
Antifungal evaluation was also accomplished with microdilution broth method. On the contrary, there was used RPMI 1640 broth with glutamine as medium and conditions were humid and dark atmosphere, pH 7.0 (buffered with 3-morpholinopropane-1-sulfonic acid) and 35 °C. Eight fungal strains were used (Candida albicans ATCC 44859, Candida tropicalis 156, Candida krusei E28, Candida glabrata 20/I, Trichosporon asahii 1188, Aspergillus fumigatus 231, Absidia corymbifera 272, Trichophyton mentagrophytes 445) together with 4 antimycotic standards amphotericin B, voriconazole, nystatin and fluconazole.

For series [6], the system named is photosynthetic electron transport (PET) in spinach chloroplasts. Also on record: method as in earlier work. The settings on record: DCMU standard; read-out: IC50 PET inhibition in spinach chloroplasts (standard); cited from earlier work.

Values after ≈ are worked out from the molar mass of the structure shown. Values joined by “and” are separate entries in the source; they are usually repeats but may differ in a detail not shown here. Equal values may be shown once. Read-outs that look alike come from different tables or passages of the source.

For `COc1ccc(CNc2nc(C#N)c(C#N)nc2C)cc1` [Compound 5, 5-[(4-Methoxybenzyl)amino]-6-methylpyrazine-2,3-dicarbonitrile], in series [1], the MIC (in general, the lowest concentration that inhibits growth of the organism) is greater than 100 µg/mL and the “MIC M.tuberculosis H37Rv” value was greater than 100 µg/mL. In addition, the IC50 (as a rule, the concentration needed to halve the response being measured) in series [2] was determined as 465 µM. In series [3], this molecule registered a log k of 0.2820 and a π of −0.0174.
In the case of `Cc1nc(C#N)c(C#N)nc1NCc1cccc(C(F)(F)F)c1` [Compound 2, 5-Methyl-6-{[3-(trifluoromethyl)benzyl]amino}pyrazine-2,3-dicarbonitrile], the MIC in series [1] was found to be 12.5 µg/mL (≈ 39.4 µM). In addition, in series [2], the half-inhibitory concentration (IC50) was 37.7 µM. Also, in series [3], the log k is reported as 0.5369 and the π came to 0.2375.
Take `Cc1nc(C#N)c(C#N)nc1NCc1ccccc1C(F)(F)F` [Compound 12, 5-Methyl-6-{[2-(trifluoromethyl)benzyl]amino}pyrazine-2,3-dicarbonitrile]: in series [4], the “activity against M. kansasii” value is reported as “active”. In series [1], inhibition of growth (MIC) required 12.5 µg/mL (≈ 39.4 µM). Moreover, in series [2], inhibition was half-maximal at 71.6 µM (IC50). Also, in the series with M. avium CNCTC My 152/73, the “activity against M. avium 152” value is “active”. Besides, in series [3], the log k was determined as 0.4865 and the π is listed as 0.1871. Moreover, the MIC in series [5] was determined as 125 µM (≈ 39.7 µg/mL).
As for `Cc1nc(C#N)c(C#N)nc1NCc1ccccc1` [Compound 6, 5-(Benzylamino)-6-methylpyrazine-2,3-dicarbonitrile], the lowest concentration to inhibit growth in series [1] (MIC) was 25 µg/mL (≈ 100 µM). The “IC50 PET inhibition in spinach chloroplasts” value (“IC50 PET inhibition” below) in series [2] was “inactive”. In series [3], this molecule displayed a log k of 0.2994 and a π of 0.
`Cc1nc(C#N)c(C#N)nc1NCc1ccc(Cl)cc1` [Compound 15, 5-[(4-Chlorobenzyl)amino]-6-methylpyrazine-2,3-dicarbonitrile] registered an MIC in series [1] of 12.5 µg/mL (≈ 44.1 µM). In series [2], the IC50 is 86.5 µM. Also, in series [3], the log k worked out at 0.5384 and the π was determined as 0.2390. In addition, the “activity against Trichophyton mentagrophytes” value in series [5] is “insignificant activity”.
Take `Cc1ccccc1CNc1nc(C#N)c(C#N)nc1C` [Compound 1, 5-Methyl-6-[(2-methylbenzyl)amino]pyrazine-2,3-dicarbonitrile]: in series [1], the minimal inhibitory concentration (MIC) is greater than 100 µg/mL and the “MIC M.tuberculosis H37Rv” value is greater than 100 µg/mL. This molecule also had an IC50 in series [2] of 114 µM. Moreover, in series [3], the log k is on record as 0.4668 and the π is listed as 0.1674.
Turning to `Cc1nc(C#N)c(C#N)nc1NCc1ccccc1Cl` [Compound 9, 5-[(2-Chlorobenzyl)amino]-6-methylpyrazine-2,3-dicarbonitrile], in series [1], the MIC worked out at 6.25 µg/mL (≈ 22 µM). This molecule yielded an IC50 in series [2] of 79 µM. For the same molecule, in series [3], the log k was 0.4663 and the π amounted to 0.1669.
Regarding `Cc1nc(C#N)c(C#N)nc1NCc1ccc(N)cc1` [Compound 7, 5-[(4-Aminobenzyl)amino]-6-methylpyrazine-2,3-dicarbonitrile], the MIC in series [1] amounted to 25 µg/mL (≈ 94.6 µM). The “IC50 PET inhibition” value in series [2] was “inactive”. In series [3], this molecule gave a log k of −0.2014 and a π of −0.5008. In series [5], the MIC was 500 µM (≈ 132 µg/mL) and the “activity against Trichophyton mentagrophytes” value is reported as “insignificant activity”.
Consider `Cc1ccc(CNc2nc(C#N)c(C#N)nc2C)cc1` [Compound 4, 5-Methyl-6-[(4-methylbenzyl)amino]pyrazine-2,3-dicarbonitrile], for which the MIC in series [1] was determined as 25 µg/mL (≈ 94.9 µM). Moreover, in series [2], the half-maximal inhibitory concentration (IC50) amounted to 105 µM. In series [3], the log k is 0.5157 and the π came out at 0.2163.
`NNC(=O)c1ccncc1` [INH, isoniazid, reference compound] gave a minimum inhibitory concentration (MIC) in series [1] of 1.56 µg/mL (≈ 11.4 µM).
`NC(=O)c1cnccn1` [PZA, pyrazinamide, reference compound]: 12.5 µg/mL (≈ 102 µM) was the least that counted as inhibitory in series [1] (MIC).
`COc1ccc(CNc2nc(C#N)c(C#N)nc2C)c(OC)c1` [Compound 13, 5-[(2,4-Dimethoxybenzyl)amino]-6-methylpyrazine-2,3-dicarbonitrile] came in with a minimum inhibitory concentration (MIC) in series [1] of 25 µg/mL (≈ 80.8 µM). For the same molecule, in series [2], the “IC50 PET inhibition” value is “inactive”. In series [3], this molecule yielded a log k of 0.3699 and a π of 0.0705.
In series [1], `Cc1nc(C#N)c(C#N)nc1NCc1cccc([N+](=O)[O-])c1` [Compound 14, 5-Methyl-6-[(3-nitrobenzyl)amino]pyrazine-2,3-dicarbonitrile] gave an MIC of 12.5 µg/mL (≈ 42.5 µM). In series [2], this molecule came in with a half-inhibitory concentration (IC50) of 487 µM. Also, in series [3], the log k came to 0.1808 and the π is −0.1186.
Regarding `Cc1nc(C#N)c(C#N)nc1NCc1ccc(C(F)(F)F)cc1` [Compound 11, 5-Methyl-6-{[4-(trifluoromethyl)benzyl]amino}pyrazine-2,3-dicarbonitrile], the “activity against M. kansasii” value in series [4] is given as “active”. Further, in series [1], the MIC was found to be 6.25 µg/mL (≈ 19.7 µM). This molecule yielded an IC50 in series [2] of 39.6 µM. For the same molecule, in the series on M. avium CNCTC My 152/73, the “activity against M. avium 152” value is “active”. For the same molecule, in series [3], the log k was found to be 0.5626 and the π is 0.2632.
The molecule `Cc1nc(C#N)c(C#N)nc1NCc1cccc(Cl)c1` [Compound 8, 5-[(3-Chlorobenzyl)amino]-6-methylpyrazine-2,3-dicarbonitrile] displayed an MIC in series [1] of 12.5 µg/mL (≈ 44.1 µM). The same molecule yielded an IC50 in series [2] of 57.4 µM. Further, in series [3], the log k is reported as 0.5172 and the π is 0.2178.
In turn, `Cc1nc(C#N)c(C#N)nc1NCc1ccc(Cl)c(Cl)c1` [Compound 3, 5-[(3,4-Dichlorobenzyl)amino]-6-methylpyrazine-2,3-dicarbonitrile] displayed an MIC in series [1] of 6.25 µg/mL (≈ 19.6 µM). The IC50 in series [2] came out at 16.4 µM. In addition, the “PET inhibitory activity relative to DCMU (times lower)” value in series [2] (ratio of IC50 to standard DCMU) worked out at 8.6 times. In series [3], this molecule displayed a log k of 0.7538 and a π of 0.4544.
In the case of `CN(C)C(=O)Nc1ccc(Cl)c(Cl)c1` [DCMU, 3-(3,4-dichlorophenyl)-1,1-dimethylurea], the IC50 in series [6] is ~1.9 µM and 1.9 µM.
In series [1], `Cc1nc(C#N)c(C#N)nc1NCc1ccccc1F` [Compound 10, 5-[(2-Fluorobenzyl)amino]-6-methylpyrazine-2,3-dicarbonitrile] registered an MIC of 12.5 µg/mL (≈ 46.8 µM). For the same molecule, in series [2], the midpoint of inhibition, the IC50, lay at 196 µM. Further, in series [3], the log k stood at 0.3042 and the π came out at 0.0048. Also, in series [5], the MIC came to 500 µM (≈ 134 µg/mL) and the “activity against Trichophyton mentagrophytes” value is reported as “insignificant activity”.
